Measured values from patent US9220269B2, “Use of 6-substituted 9-halogenalkyl purines for regulation of growth and development of whole plants, plant cells and plant organs; novel 6-substituted 9-halogenalkyl purines” (UNIVERZITA PALACKEHO V OLOMOUCI, priority 2010, dated 2015).

How the values were obtained:
[1] = test system: detached leaf segments of Triticum aestivum cv. Hereward; assay: senescence bioassay on detached wheat leaf segments in light conditions (chlorophyll retention); conditions: for concentration with highest activity: constant light 100 μmol·m^−2·s^−1, 22° C.; for activity (%) [10^−4 mol. l^−1 Kin = 100%]: light, at the concentration with highest activity
Experimental: (§1) Seeds of winter wheat, Triticum aestivum cv. Hereward, were washed under running water for 24 hours and then sown on vermiculite soaked with Knop's solution. They were placed in the growth chamber at 25° C. with a 16/8 h light period at 50 μmol·m^−2·s^−1. After 7 days, the first leaf was fully developed and the second leaf had started to grow. A tip section of the first leaf, approximately 35 mm long, was removed from 5 seedlings and trimmed slightly to a combined weight of 100 mg. The basal ends of the five leaf tips were placed in the wells of a microtiter polystyrene plate containing 150 μL of the tested derivative solution each. The entire plate was inserted into a plastic box lined with paper tissues soaked in distilled water to prevent leaf sections from drying out. After 96 h incubation in the dark at 25° C., the leaves were removed and chlorophyll extracted by heating at 80° C. for 10 min in 5 mL of 80% ethanol (v/v). The sample volume was then restored to 5 mL by the addition of 80% ethanol (v/v). The absorbance of the extract was recorded at 665 nm. In addition, chlorophyll extracts from fresh leaves and leaf tips incubated in deionised water were measured. The results are means of five replicates and the entire test was repeated twice. […] The compounds to be tested were dissolved in dimethylsulfoxide (DMSO) and the solution brought up to 10^−3M with distilled water. […] The activity obtained for 10^−4 M Kin was postulated as 100%.
The ability of the novel compounds to retard chlorophyll degradation in detached wheat leaves was tested also in the light conditions. The experiment was performed as described in Example 7 with modifications as follows—the incubation of the leaves with the compounds was done in the constant light (100 μmol·m^−2·s^−1) at 22° C.

[2] = test system: detached leaf segments of Triticum aestivum cv. Hereward; assay: senescence bioassay on detached wheat leaf segments in dark conditions (chlorophyll retention); conditions: for concentration with highest activity: 96 h, 25° C., chlorophyll A665; for activity (%) [10^−4 mol. l^−1 Kin = 100%]: at the concentration with highest activity
Experimental: as §1

[3] = test system: cytokinin-dependent tobacco callus Nicotiana tabacum L. cv. Wisconsin 38; assay: cytokinin-dependent tobacco callus bioassay (plant cell division); type: cell-based; conditions: for activity (%) [10^−6 mol. l^−1 Kin = 100%] / activity (%) [10^−5 mol. l^−1 iP = 100%]: at the concentration with highest activity; for activity (%) [10^−6 mol. l^−1 Kin = 100%]: relative to 10^−6 M Kin; for activity (%) [10^−5 mol. l^−1 iP = 100%]: relative to 10^−5 M iP; for effect on callus growth (cell proliferation) in high concentrations: concentrations exceeding 10 μM, up to 100 μM, FIG. 1; for concentration with highest activity: growth of tobacco callus, fresh weight after four weeks
Experimental: Stimulatory effect of newly prepared derivatives was tested using cytokinin-dependent tobacco callus. The cytokinin-dependent tobacco callus Nicotiana tabacum L. cv. Wisconsin 38 was maintained at 25° C. in darkness on modified MS medium, containing per 1 liter: 4 μmol of nicotinic acid, 2.4 μmol of pyridoxine hydrochloroide, 1.2 μmol of thiamine, 26.6 μmol of glycine, 1.37 μmol of glutamine, 1.8 μmol of myo-inositol, 30 g of sucrose, 8 g of agar, 5.37 μmol of NAA and 0.5 μmol of the compound tested. Subcultivation was carried out every three weeks. Fourteen days before the bioassay, the callus tissue was transferred to the media without the compound tested. The biological activity was determined from the increase of the fresh callus weight after four weeks of cultivation. Six replicates were prepared for each concentration of the compound tested and the entire test was repeated twice. […] The compounds to be tested were dissolved in dimethylsulfoxide (DMSO) and the solution brought up to 10^−3 M with distilled water. […] From the obtained data, the concentration with the highest activity was selected for each compound tested. Relative activity of the compound at this concentration was calculated (Table 2). The activity obtained for 10^−6 M of the N9-unsubstituted parent cytokinins Kin and 10^−5 M iP, respectively, was postulated as 100% biological activity. […] For comparison, compounds bearing halogenbutyl substituent in position 9 were prepared and tested.
Cytokinins are known to have stimulatory effects on cell proliferation in their optimal concentrations, however typically in the concentrations exceeding 10 μM their effect on cell division turns into inhibitory (Holub et al., Plant Growth Regul. 26, 109-115, 1998). Therefore the effect of the high concentrations of the newly prepared derivatives was tested using cytokinin-dependent tobacco callus described in Example 6. The novel compounds 1, 2 and 4 were tested in high concentrations (1-100 μM) and the activities were compared with activities of their N9-unsubstituted parent cytokinins.

[4] = test system: Amaranthus caudatus var. atropurpurea explants (cotyledons and hypocotyl); assay: Amaranthus bioassay (betacyanin formation); conditions: for activity (%) [10^−5 mol. l^−1 iP = 100%]: at the concentration with highest activity; for concentration with highest activity: betacyanin formation, 48 h in darkness
Experimental: The standard Amaranthus bioassay with several modifications was used to study cytokinin activity of the novel compounds. The seeds of Amaranthus caudatus var. atropurpurea were surface-sterilised in 10% (w/v) N-chlorobenzenesulfonamide for 10 min and washed 5 times with deionized water. They were placed in 14 cm Petri dishes containing paper tissues saturated with deionized water. After 72 h of cultivation at 25° C. in darkness, the roots of the seedlings were cut off. The explants, consisting of two cotyledons and hypocotyl, were placed in 5 cm Petri dishes onto two layers of filter paper soaked with 1 ml of the incubation medium containing 10 μmol of Na2HPO4—KH2PO4, pH 6.8, 5 μmol of tyrosine and the cytokinin to be tested. There were 20 explants per dish. The procedure was carried out under a green safe light in a darkroom. After 48 h of incubation at 25° C. in darkness, betacyanin was extracted by freezing the explants in 4 ml […] acetic acid. The concentration of betacyanin was determined from the absorbances at 537 nm and 620 nm as follows: ΔA=A537 nm−A620 nm. The values ΔA were plotted against the concentration tested, are means of five replicates and the entire test was repeated twice. […] The compounds to be tested were dissolved in dimethylsulfoxide (DMSO) and the solution brought up to 10^−3 M with distilled water. […] The activity obtained for 10^−5 M iP was postulated as 100%.

[5] = test system: Zea mays cv. CELLUX seedlings; assay: root growth and development of maize seedlings in hydroponics; type: in vivo; conditions: 5 μM in nutrient solution; FIG. 3
Experimental: To investigate in vivo effect of the new derivatives on the root growth and development, maize seeds (Zea mays cv. CELLUX, Morseva, Czech Republic) were imbibed in tap water and germinated in dark on a wetted filter paper. After 2 days, the germinated seedlings were transferred to aerated hydroponic tanks filled with Hoagland's nutrient solution (fifteens per one liter of Hoagland solution). The plants were grown in a chamber with 16 hrs light (250 μm-2 s-1) at 27° C. and 8 hrs dark period at 20° C. The nutrient solution was supplemented with 5 μM and 10 μM concentration of 6-furfurylamino-9-(2-chloroethyl)purine or 5 μM cytokinin kinetin (Kin). All solutions used for cytokinin treatment including negative control contained DMSO in final concentration of 0.01%.

VP14 gene = assay: expression of VP14 stress gene in intact maize plants (RT-PCR); type: in vivo, Zea mays; conditions: 5 μM
Experimental: Abscisic acid has a direct effect on up-regulation of genes involved in stress responses (Tan et al., 1997, Proc Natl Acad Sci USA, 94, 12235-40). 5-days-old maize seedlings were carefully transferred from substrate to nutrient solution supplemented with tested compound in 5 μM concentration and were cultivated for another 3 days. Transcript copy number of VP14 gene was determined in roots and leaves of treated plants independently by method of reverse transcription polymerase chain reaction.

[6] = 3 days, related to untreated control = 1

BrCCCCn1cnc2c(NCc3ccco3)ncnc21 [6-furfurylamino-9-(4-bromobutyl)purine, reference compound]
concentration with highest activity [1]: 10^−4 mol. l^−1 | activity (%) [10^−4 mol. l^−1 Kin = 100%] [1]: 60 (±16) % | concentration with highest activity [2]: 10^−4 mol. l^−1 | activity (%) [10^−4 mol. l^−1 Kin = 100%] [2]: 1.2 (±2) % | activity (%) [10^−6 mol. l^−1 Kin = 100%] [3]: 45 (±8) %

CC(C)=CCNc1ncnc2c1ncn2CCCl [Compound 4, 6-[(3-methylbut-2-en-1-yl)amino]-9-(2-chloroethyl)purine]
activity (%) [10^−5 mol. l^−1 iP = 100%] [4]: 128 (±11) % | concentration with highest activity [4]: 10^−4 mol. l^−1 | activity (%) [10^−5 mol. l^−1 iP = 100%] [3]: 112 (±7) % | effect on callus growth (cell proliferation) in high concentrations [3]: still kept their stimulatory effect

C/C(=C\C(C)Nc1ncnc2c1ncn2CCCl)CO (centres unmarked) [Compound 136, 6-(E)-(4-hydroxy-1,3-dimethylbut-2-en-1-ylamino)-9-(2-chloroethyl)purine]
concentration with highest activity [2]: 10^−4 mol. l^−1 | activity (%) [10^−4 mol. l^−1 Kin = 100%] [2]: 114 (±4) % | activity (%) [10^−6 mol. l^−1 Kin = 100%] [3]: 115 (±7) %

CC(C)=CCNc1ncnc2nc[nH]c12 [6-(3-methylbut-2-en-1-yl)aminopurine, reference compound]
activity (%) [10^−5 mol. l^−1 iP = 100%] [4]: 100% | concentration with highest activity [4]: 10^−5 mol. l^−1 | activity (%) [10^−5 mol. l^−1 iP = 100%] [3]: 100% | effect on callus growth (cell proliferation) in high concentrations [3]: inhibited strongly the callus growth

ClCCCCn1cnc2c(NCc3ccco3)ncnc21 [6-furfurylamino-9-(4-chlorobutyl)purine, reference compound]
concentration with highest activity [1]: 10^−4 mol. l^−1 | activity (%) [10^−4 mol. l^−1 Kin = 100%] [1]: 119 (±6) % | concentration with highest activity [2]: 10^−4 mol. l^−1 | activity (%) [10^−4 mol. l^−1 Kin = 100%] [2]: 72 (±13) % | activity (%) [10^−6 mol. l^−1 Kin = 100%] [3]: 62 (±7) %

COc1cccc(CNc2ncnc3c2ncn3CCCl)c1 [Compound 38]
concentration with highest activity [2]: 10^−4 mol. l^−1 | activity (%) [10^−4 mol. l^−1 Kin = 100%] [2]: 116 (±7) % | activity (%) [10^−6 mol. l^−1 Kin = 100%] [3]: 106 (±5) % | concentration with highest activity [3]: 10^−5 mol. l^−1

BrCCn1cnc2c(NCc3ccco3)ncnc21 [Compound 2, 6-furfurylamino-9-(2-bromoethyl)purine]
concentration with highest activity [1]: 10^−4 mol. l^−1 | activity (%) [10^−4 mol. l^−1 Kin = 100%] [1]: 121 (±8) % | concentration with highest activity [2]: 10^−4 mol. l^−1 | activity (%) [10^−4 mol. l^−1 Kin = 100%] [2]: 102 (±3) % | activity (%) [10^−6 mol. l^−1 Kin = 100%] [3]: 110 (±3) %

CC(C)=CCNc1ncnc2c1ncn2CCBr [Compound 3, 6-[(3-methylbut-2-en-1-yl)amino]-9-(2-bromoethyl)purine]
activity (%) [10^−5 mol. l^−1 iP = 100%] [4]: 116 (±9) % | concentration with highest activity [4]: 10^−4 mol. l^−1 | activity (%) [10^−5 mol. l^−1 iP = 100%] [3]: 103 (±4) %

Oc1cccc(CNc2ncnc3c2ncn3CCCl)c1 [Compound 47]
concentration with highest activity [2]: 10^−4 mol. l^−1 | activity (%) [10^−4 mol. l^−1 Kin = 100%] [2]: 111 (±9) % | activity (%) [10^−6 mol. l^−1 Kin = 100%] [3]: 111 (±2) % | concentration with highest activity [3]: 10^−5 mol. l^−1

c1coc(CNc2ncnc3nc[nH]c23)c1 [6-furfurylaminopurine (Kin), 6-furfurylaminopurine, reference compound]
concentration with highest activity [1]: 10^−4 mol. l^−1 | activity (%) [10^−4 mol. l^−1 Kin = 100%] [1]: 100% | concentration with highest activity [2]: 10^−4 mol. l^−1 | activity (%) [10^−4 mol. l^−1 Kin = 100%] [2]: 100% | root and shoot phenotype of maize plants [5]: dramatic thickening and shortening of primary root with no lateral root formation | Relative amount of transcripts, leaf (VP14 gene; [6]): 16.3 (±4.0) | Relative amount of transcripts, root (VP14 gene; [6]): 3.4 (±0.8) | effect on VP14 expression / stress response (VP14 gene; in words): significantly increases VP14 expression in both root and leaves of maize | activity (%) [10^−6 mol. l^−1 Kin = 100%] [3]: 100% | effect on callus growth (cell proliferation) in high concentrations [3]: inhibited strongly the callus growth
